Laboratory results published in patent US20260008818A1, “CYCLIC PEPTIDE OR SALT THEREOF, AND USES THEREOF” (FUJIFILM Corporation, priority 2023, published 2026).
Ends that are not written are not given here.

Tests used:
[1] = tested on: BaF3 cells stably expressing FGFR (avian); assay: Cell proliferation-promoting effect on BaF3 cells stably expressing avian FGFR; type: cell-based; settings: BaF3 with avian FGFR; viable cells at the addition concentration (0.001 to 10 nmol/L) with largest number; 2 nights
Experimental: (§1) The FGFR phosphorylation ability of the cyclic peptide complex was evaluated using the BaF3 cell proliferation-promoting effect in which FGFR was stably expressed.
(§2) BaF3 cells stably expressing FGFR were established by introducing a vector (human: Gene Copocia, EX-Y2820-M67, bovine: sequence of Accession No. A4IFL5 was introduced into pCDNA3.1/Hygro(+) Mammalian Expression Vector (Thermo, V87020), porcine: sequence of Accession No. A0A8DIE4H1 was introduced into pCDNA3.1/Hygro(+) Mammalian Expression Vector (Thermo, V87020), and avian: sequence of Accession No. P21804 was introduced into pCDNA3.1/Hygro(+) Mammalian Expression Vector (Thermo, V87020)) into which FGFR gene had been incorporated, into BaF3 cells using NucleoFector (Lonza) and performing drug selection of cells into which the FGFR gene had been introduced using hygromycin.
(§3) The evaluation of the proliferation-promoting effect of BaF3 cells in which FGFR is stably expressed was performed by the following method. First, RPMI-1640 with L-Glutamine and Phenol Red (FUJIFILM Wako Pure Chemical Corporation, 189-02025) and Fetal Bovine Serum (Thermo, 10270-106) were mixed at a volume ratio of 9:1, and then heparin (STEM CELL, 07980) was added thereto such that the final concentration thereof was 8 μg/mL, thereby preparing a culture medium for evaluation (hereinafter, described as RPMI (10% FBS) medium). Next, the BaF3 cells in which FGFR had been stably expressed were washed twice with RPMI (10% FBS) culture medium, suspended in RPMI (10% FBS) culture medium in which the cyclic peptide complex had been dissolved to a final concentration of 0.001 to 10 nmol/L, and seeded in a 384-well plate. In this case, a condition in which the cyclic peptide complex was not added as a negative control was prepared. After culturing at 37° C. (5% CO2) for 2 nights, Hoechst 33342, Trihydrochloride, Trihydrate—10 mg/mL Solution in Water (Thermo, H3570), -Cellstain (registered trademark)-Calcein-AM solution (1 mg/mL DMSO solution) (DOJINDO, C396), and -Cellstain (registered trademark)-PI solution (DOJINDO, P378) were each added to RPMI (10% FBS) culture medium in a volume amount of 1/1,000 at the final concentration, and live/dead staining of the cells were performed by allowing to stand at room temperature for 1 hour, and imaging was performed using a confocal microscope (Yokogawa Electric Corporation, CQ1). The number of viable cells was calculated from the imaging data, and the cell proliferation-promoting effect was evaluated according to the following evaluation criteria. The number of viable cells in the negative control was about 20 cells/well. The evaluation result preferably satisfies the evaluation criteria A, B, or C. […]

[2] = tested on: BaF3 cells stably expressing FGFR (human); assay: Cell proliferation-promoting effect on BaF3 cells stably expressing human FGFR; type: cell-based; settings: BaF3 with human FGFR; viable cells at the addition concentration (0.001 to 10 nmol/L) with largest number; 2 nights
Experimental: as §1, §2, §3

[3] = tested on: BaF3 cells stably expressing FGFR (bovine); assay: Cell proliferation-promoting effect on BaF3 cells stably expressing bovine FGFR; type: cell-based; settings: BaF3 with bovine FGFR; viable cells at the addition concentration (0.001 to 10 nmol/L) with largest number; 2 nights
Experimental: as §1, §2, §3

[4] = tested on: BaF3 cells stably expressing FGFR (porcine); assay: Cell proliferation-promoting effect on BaF3 cells stably expressing porcine FGFR; type: cell-based; settings: BaF3 with porcine FGFR; viable cells at the addition concentration (0.001 to 10 nmol/L) with largest number; 2 nights
Experimental: as §1, §2, §3

[5] = Stability of cyclic peptide after alkali treatment, LC; type: physicochemical; settings: alkali treatment: 0.5 mol/L sodium hydroxide aqueous solution, room temperature, 3 hours
Experimental: In addition, the stability of the cyclic peptide (SEQ ID NO: 382) containing a cysteine residue in the cyclized portion and the cyclic peptide (SEQ ID NO: 374) containing a homocysteine residue in the cyclized portion was compared under the following alkali treatment, which is a more severe condition.
The alkali treatment was performed by the following method. 25 μL of a 0.2 mg/mL cyclic peptide aqueous solution was prepared, 58.8 μL of a 0.5 mol/L sodium hydroxide aqueous solution was added to the aqueous solution, and the mixture was incubated at room temperature for 3 hours to obtain an aqueous solution of the cyclic peptide alkali-treated. The total area of all the peaks in LC/MS of the cyclic peptide before the alkali treatment was set to 100%, and the proportion of the total area of all the peaks in LC/MS of the aqueous solution of the cyclic peptide alkali-treated was determined to calculate the residual rate of the cyclic peptide.
The LC conditions used for the evaluation of molecular stability are the same as those in the measurement of the above-described cyclic peptide treated with a reducing agent.

395 (CSYERLQFHGHEAPFRVKVCSYERLQFHGHEAPFRVKV; also: cyclic, closure not given here) [compound 395]
Evaluation result of cell proliferative properties Avian [1]: B (The number of viable cells is 200 cells/well or more and less than 400 cells/well.) | Evaluation result of cell proliferative properties Human [2]: B (The number of viable cells is 200 cells/well or more and less than 400 cells/well.) | Evaluation result of cell proliferative properties Bovine [3]: A (The number of viable cells is 400 cells/well or more.) | Evaluation result of cell proliferative properties Porcine [4]: B (The number of viable cells is 200 cells/well or more and less than 400 cells/well.)

H-(C)-SYERLQFHGHEAPFRV-(K(acetyl))-VKKK [SEQ ID NO: 382]
residual rate of the cyclic peptide [5]: 26%

H-(Hcy)-SYERLQFHGHEAPFRV-(K(acetyl))-VKKK [SEQ ID NO: 374]
residual rate of the cyclic peptide [5]: 32%

391 (HCSYERLQFHGHEAPFRVKVGHCSYERLQFHGHEAPFRVKV; also: cyclic, closure not given here) [compound 391]
Evaluation result of cell proliferative properties Avian [1]: A (The number of viable cells is 400 cells/well or more.) | Evaluation result of cell proliferative properties Human [2]: A (The number of viable cells is 400 cells/well or more.) | Evaluation result of cell proliferative properties Bovine [3]: A (The number of viable cells is 400 cells/well or more.) | Evaluation result of cell proliferative properties Porcine [4]: B (The number of viable cells is 200 cells/well or more and less than 400 cells/well.)

392 (HCSYERLQFHGHEAPFRVKVHCSYERLQFHGHEAPFRVKV; also: cyclic, closure not given here) [compound 392]
Evaluation result of cell proliferative properties Avian [1]: B (The number of viable cells is 200 cells/well or more and less than 400 cells/well.) | Evaluation result of cell proliferative properties Human [2]: A (The number of viable cells is 400 cells/well or more.) | Evaluation result of cell proliferative properties Bovine [3]: A (The number of viable cells is 400 cells/well or more.) | Evaluation result of cell proliferative properties Porcine [4]: B (The number of viable cells is 200 cells/well or more and less than 400 cells/well.)

396 (CSYERLQFHGHEAPFRVKVCSYERLQFHGHEAPFRVKV; also: cyclic peptide) [compound 396]
Evaluation result of cell proliferative properties Avian [1]: A (The number of viable cells is 400 cells/well or more.) | Evaluation result of cell proliferative properties Human [2]: A (The number of viable cells is 400 cells/well or more.) | Evaluation result of cell proliferative properties Bovine [3]: A (The number of viable cells is 400 cells/well or more.) | Evaluation result of cell proliferative properties Porcine [4]: B (The number of viable cells is 200 cells/well or more and less than 400 cells/well.)
